The values that follow come from ChEMBL document CHEMBL5136991, “Dual-target inhibitors of poly (ADP-ribose) polymerase-1 for cancer therapy: Advances, challenges, and opportunities” (Eur J Med Chem, 2022).

For series [1], the target named is Rho-associated protein kinase 1 (Homo sapiens, UniProt Q13464). Put plainly: Inhibition of ROCK1 (unknown origin).
Series [2] deals with Rho-associated protein kinase 2 (Homo sapiens, UniProt O75116). Nature of the series: Inhibition of ROCK2 (unknown origin).
Series [3] concerns the target T1, Bromodomain-containing protein 4 (Homo sapiens, UniProt O60885). Nature of the series: Inhibition of BRD4 (unknown origin).
Series [4] has as its target T1, Bromodomain-containing protein 4. Put plainly: Ratio of IC50 for RVX-208 to IC50 for test compound for BRD4 (unknown origin).
In series [5] the target is T2, Poly [ADP-ribose] polymerase 1 (Homo sapiens, UniProt P09874). Put plainly: Inhibition of PARP1 (unknown origin).
Series [6] addresses T1, Bromodomain-containing protein 4. Nature of the series: Inhibition of BRD4 (unknown origin) relative to control. The note with it: concentration not given here.
For series [7], the target named is T3, Bromodomain-containing protein 1 (Homo sapiens, UniProt O95696).
T3 sequence (O95696 whole entry): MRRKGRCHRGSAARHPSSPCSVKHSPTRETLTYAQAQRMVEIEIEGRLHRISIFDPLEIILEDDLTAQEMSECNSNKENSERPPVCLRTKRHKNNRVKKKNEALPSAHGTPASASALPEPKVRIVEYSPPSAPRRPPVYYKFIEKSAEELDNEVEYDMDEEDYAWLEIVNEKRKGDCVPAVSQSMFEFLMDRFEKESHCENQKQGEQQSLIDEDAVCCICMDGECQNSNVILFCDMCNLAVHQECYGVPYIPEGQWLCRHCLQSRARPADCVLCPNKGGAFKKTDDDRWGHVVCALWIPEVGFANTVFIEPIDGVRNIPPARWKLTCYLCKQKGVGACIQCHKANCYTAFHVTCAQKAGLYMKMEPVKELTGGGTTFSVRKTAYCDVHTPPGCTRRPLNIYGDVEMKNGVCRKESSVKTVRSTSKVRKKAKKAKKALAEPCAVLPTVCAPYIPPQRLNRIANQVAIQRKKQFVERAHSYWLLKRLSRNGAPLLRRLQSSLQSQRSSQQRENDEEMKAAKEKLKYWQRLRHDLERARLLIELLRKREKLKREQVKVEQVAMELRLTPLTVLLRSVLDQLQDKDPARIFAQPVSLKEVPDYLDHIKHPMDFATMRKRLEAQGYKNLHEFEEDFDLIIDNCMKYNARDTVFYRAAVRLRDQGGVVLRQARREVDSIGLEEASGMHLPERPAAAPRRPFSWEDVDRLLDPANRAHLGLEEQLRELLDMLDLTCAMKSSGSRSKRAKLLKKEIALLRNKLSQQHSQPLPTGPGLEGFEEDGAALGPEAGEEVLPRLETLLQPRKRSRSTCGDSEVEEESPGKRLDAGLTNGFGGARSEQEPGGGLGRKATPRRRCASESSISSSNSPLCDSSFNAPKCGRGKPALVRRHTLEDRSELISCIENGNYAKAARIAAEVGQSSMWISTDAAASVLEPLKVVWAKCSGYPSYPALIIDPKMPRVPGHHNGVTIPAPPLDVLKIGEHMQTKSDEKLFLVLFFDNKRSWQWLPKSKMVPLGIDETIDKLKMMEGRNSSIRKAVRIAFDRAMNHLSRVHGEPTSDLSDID
Nature of the series: Inhibition of BRD1 (unknown origin).

The target of series [8] is Bromodomain-containing protein 2 (Homo sapiens, UniProt P25440). Put plainly: Inhibition of BRD2 (unknown origin).
Series [9] concerns the target T2, Poly [ADP-ribose] polymerase 1. Put plainly: Inhibition of PARP1 (unknown origin) relative to control. The note with it: concentration not given here.
The nature of series [10]: Half life in Sprague-Dawley rat plasma at 10 mg/kg, po. Format: ADME, organism-based. Particulars: in vivo.
Series [11] can be described thus: AUC (0 to infinity) in Sprague-Dawley rat plasma at 10 mg/kg, po. Format: ADME, organism-based. The note with it: in vivo. The arrangement: time infinity, dose 10 mg/kg, route po.
The nature of series [12]: Cmax in Sprague-Dawley rat plasma at 10 mg/kg, po. Type of series: ADME, organism-based. Also noted: dose 10 mg/kg, route po. The note with it: in vivo.
Series [13] is described as follows: Tmax in Sprague-Dawley rat plasma at 10 mg/kg, po. Format: ADME, organism-based. Particulars: in vivo.
Series [14] can be described thus: MRT in Sprague-Dawley rat plasma at 10 mg/kg, po. Type of series: ADME, organism-based.
The target in series [15] is T1, Bromodomain-containing protein 4. Nature of the series: Inhibition of BRD4 (unknown origin) at […] relative to control.
The target of series [16] is T2, Poly [ADP-ribose] polymerase 1. Put plainly: Inhibition of PARP1 (unknown origin) at […] relative to control.
A short description of series [17]: Inhibition of PARP (unknown origin). The arrangement: species or system Homo sapiens.
Series [18] has as its target Dihydroorotate dehydrogenase (quinone), mitochondrial (Homo sapiens, UniProt Q02127). Nature of the series: Inhibition of DHODH (unknown origin).
A further series has as its system MCF7. Nature of the series: Antiproliferative activity against BRCA proficient human MCF7 cells assessed as inhibition of cell growth incubated for 48 hrs by MTT assay. Type of series: functional, cell-based. The note with it: MCF7, 48 h.
For another series, the system named is HCC1937. Nature of the series: Antiproliferative activity against BRCA deficient human HCC1937 cells assessed as inhibition of cell growth incubated for 48 hrs by MTT assay. Format: functional, cell-based. Particulars: HCC1937, 48 h. In general terms: Tetrazolium dyes change colour on reduction, which living cells bring about.
The nature of series [19]: Ratio of olaparib IC50 to test compound IC50 for antiproliferative against BRCA proficient human MCF7 cells. Type of series: functional.
Series [20] can be described thus: Ratio of olaparib IC50 to test compound IC50 for antiproliferative against BRCA deficient human HCC1937 cells. Type of series: functional.
The target of series [21] is T2, Poly [ADP-ribose] polymerase 1. Nature of the series: Inhibition of PARP1 (unknown origin) incubated for 60 mins by microplate assay kit method.
The target of series [22] is Poly [ADP-ribose] polymerase 2 (Homo sapiens, UniProt Q9UGN5). Nature of the series: Inhibition of PARP2 (unknown origin) incubated for 60 mins by microplate assay kit method.
Series [23] is described as follows: Inhibition of porcine brain microtubule polymerization incubated for 105 mins by fluorescent based assay. Also noted: species or system Sus scrofa.

Molecules are shown by their SMILES.

T2 sequence (P09874 whole entry): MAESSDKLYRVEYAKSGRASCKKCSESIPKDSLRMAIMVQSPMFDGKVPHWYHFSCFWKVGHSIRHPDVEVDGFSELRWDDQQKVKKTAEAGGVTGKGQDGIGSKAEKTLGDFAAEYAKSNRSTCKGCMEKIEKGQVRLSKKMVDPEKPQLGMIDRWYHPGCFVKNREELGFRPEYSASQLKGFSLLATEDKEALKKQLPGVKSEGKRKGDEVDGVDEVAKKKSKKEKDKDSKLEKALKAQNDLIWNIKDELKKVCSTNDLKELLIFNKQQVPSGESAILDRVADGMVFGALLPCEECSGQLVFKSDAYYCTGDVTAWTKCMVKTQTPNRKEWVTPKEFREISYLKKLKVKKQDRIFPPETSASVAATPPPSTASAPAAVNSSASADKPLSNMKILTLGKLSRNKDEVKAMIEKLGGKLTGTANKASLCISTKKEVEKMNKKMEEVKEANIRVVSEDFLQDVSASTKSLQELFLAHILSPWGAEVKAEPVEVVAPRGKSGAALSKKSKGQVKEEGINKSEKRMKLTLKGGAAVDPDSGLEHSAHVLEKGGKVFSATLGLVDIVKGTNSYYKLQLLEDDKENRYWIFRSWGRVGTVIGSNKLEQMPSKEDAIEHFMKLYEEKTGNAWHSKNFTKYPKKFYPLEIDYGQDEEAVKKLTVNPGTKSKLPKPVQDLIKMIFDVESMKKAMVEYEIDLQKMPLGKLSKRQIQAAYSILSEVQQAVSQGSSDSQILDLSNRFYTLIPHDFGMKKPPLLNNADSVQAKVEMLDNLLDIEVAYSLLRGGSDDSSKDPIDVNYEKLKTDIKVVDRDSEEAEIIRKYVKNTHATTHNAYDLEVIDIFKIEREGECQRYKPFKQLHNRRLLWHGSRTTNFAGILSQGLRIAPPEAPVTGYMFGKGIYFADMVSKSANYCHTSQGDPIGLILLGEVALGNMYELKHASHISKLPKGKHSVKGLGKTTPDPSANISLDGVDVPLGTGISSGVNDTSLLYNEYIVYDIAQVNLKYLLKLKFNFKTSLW
Chain of Rho-associated protein kinase 1 (Q13464 whole entry): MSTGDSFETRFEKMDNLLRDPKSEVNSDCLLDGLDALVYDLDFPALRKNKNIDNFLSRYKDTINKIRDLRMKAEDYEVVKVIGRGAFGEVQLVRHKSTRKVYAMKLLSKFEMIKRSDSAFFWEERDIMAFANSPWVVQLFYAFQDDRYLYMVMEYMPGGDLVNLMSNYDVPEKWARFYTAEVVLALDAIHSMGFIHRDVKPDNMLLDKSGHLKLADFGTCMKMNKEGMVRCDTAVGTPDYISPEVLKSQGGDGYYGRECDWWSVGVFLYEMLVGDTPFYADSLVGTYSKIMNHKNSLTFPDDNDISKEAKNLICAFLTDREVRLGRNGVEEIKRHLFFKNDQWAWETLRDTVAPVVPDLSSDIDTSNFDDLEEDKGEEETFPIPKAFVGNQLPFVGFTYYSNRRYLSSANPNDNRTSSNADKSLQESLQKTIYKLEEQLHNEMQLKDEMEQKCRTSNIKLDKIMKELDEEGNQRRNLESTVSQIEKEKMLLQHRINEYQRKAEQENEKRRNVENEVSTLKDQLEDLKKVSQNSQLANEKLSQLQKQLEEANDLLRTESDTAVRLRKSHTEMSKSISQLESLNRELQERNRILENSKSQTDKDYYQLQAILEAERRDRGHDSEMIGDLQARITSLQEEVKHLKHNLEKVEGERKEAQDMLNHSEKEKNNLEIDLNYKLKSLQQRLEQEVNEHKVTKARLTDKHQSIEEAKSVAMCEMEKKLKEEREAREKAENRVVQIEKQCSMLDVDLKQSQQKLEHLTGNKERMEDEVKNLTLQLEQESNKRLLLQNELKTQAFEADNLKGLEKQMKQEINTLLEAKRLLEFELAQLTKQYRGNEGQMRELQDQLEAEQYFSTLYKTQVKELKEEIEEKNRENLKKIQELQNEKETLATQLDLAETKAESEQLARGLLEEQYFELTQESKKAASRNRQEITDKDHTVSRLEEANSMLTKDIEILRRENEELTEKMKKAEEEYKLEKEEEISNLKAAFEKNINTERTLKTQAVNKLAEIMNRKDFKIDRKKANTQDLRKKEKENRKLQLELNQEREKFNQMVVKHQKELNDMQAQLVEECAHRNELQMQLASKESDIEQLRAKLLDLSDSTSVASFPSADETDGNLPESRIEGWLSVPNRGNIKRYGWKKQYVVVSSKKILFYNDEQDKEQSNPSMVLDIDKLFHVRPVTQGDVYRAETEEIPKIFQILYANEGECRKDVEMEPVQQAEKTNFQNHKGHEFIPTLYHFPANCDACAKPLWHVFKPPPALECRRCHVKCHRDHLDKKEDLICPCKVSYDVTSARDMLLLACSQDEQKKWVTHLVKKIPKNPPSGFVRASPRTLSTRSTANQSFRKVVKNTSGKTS
Chain of Poly [ADP-ribose] polymerase 2 (Q9UGN5 whole entry): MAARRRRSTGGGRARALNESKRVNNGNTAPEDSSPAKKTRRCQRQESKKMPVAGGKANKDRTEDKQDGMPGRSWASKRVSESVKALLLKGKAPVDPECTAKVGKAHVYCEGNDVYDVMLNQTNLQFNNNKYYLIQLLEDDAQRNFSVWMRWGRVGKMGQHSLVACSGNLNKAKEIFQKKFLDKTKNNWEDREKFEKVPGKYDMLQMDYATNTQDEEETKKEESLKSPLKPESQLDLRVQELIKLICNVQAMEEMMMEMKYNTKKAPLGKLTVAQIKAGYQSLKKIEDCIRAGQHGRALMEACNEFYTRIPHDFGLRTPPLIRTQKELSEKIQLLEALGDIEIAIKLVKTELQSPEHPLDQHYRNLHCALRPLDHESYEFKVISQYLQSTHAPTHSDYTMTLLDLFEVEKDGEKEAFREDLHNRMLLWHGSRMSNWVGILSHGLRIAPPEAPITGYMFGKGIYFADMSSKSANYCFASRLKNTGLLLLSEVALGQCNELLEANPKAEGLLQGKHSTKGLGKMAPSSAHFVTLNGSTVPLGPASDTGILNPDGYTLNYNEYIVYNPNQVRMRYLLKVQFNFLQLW
Chain of Bromodomain-containing protein 2 (P25440 whole entry): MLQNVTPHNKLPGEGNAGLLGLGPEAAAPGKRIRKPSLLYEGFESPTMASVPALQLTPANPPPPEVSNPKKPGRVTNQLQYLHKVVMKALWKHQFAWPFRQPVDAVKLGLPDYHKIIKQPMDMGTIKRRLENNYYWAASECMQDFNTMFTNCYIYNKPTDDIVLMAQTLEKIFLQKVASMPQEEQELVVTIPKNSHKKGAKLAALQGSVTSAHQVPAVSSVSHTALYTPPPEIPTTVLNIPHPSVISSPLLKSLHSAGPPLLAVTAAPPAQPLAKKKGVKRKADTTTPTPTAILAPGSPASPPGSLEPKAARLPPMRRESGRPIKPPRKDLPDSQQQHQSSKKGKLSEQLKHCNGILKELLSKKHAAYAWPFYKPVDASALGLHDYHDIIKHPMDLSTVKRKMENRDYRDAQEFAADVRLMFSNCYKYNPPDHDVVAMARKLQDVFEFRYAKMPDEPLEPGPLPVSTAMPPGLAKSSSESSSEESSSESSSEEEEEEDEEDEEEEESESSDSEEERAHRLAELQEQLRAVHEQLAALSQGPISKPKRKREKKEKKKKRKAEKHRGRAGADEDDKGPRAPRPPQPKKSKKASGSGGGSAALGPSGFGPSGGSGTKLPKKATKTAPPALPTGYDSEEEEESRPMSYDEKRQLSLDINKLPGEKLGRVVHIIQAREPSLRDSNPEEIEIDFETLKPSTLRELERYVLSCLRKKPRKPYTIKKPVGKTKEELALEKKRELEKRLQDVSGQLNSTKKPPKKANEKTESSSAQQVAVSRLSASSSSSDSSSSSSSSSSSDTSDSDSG
Chain of Dihydroorotate dehydrogenase (quinone), mitochondrial (Q02127 whole entry): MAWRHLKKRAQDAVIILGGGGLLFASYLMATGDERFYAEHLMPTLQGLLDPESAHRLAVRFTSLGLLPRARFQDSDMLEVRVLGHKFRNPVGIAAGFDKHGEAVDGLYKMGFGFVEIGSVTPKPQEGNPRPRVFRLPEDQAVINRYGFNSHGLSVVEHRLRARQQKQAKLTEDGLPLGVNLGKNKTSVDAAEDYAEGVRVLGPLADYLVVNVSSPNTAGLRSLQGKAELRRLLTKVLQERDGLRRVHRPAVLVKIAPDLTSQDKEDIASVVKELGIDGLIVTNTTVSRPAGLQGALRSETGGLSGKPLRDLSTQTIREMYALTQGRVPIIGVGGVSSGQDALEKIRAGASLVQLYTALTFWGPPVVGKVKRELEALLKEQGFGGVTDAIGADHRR

Usually IC50 stands for the midpoint of a concentration-inhibition curve. As to `O=C(COc1cccc2c(=O)[nH]ccc12)c1ccccc1`, the IC50 in series [1] came out at 9300 nM; in series [2], 20500 nM.
Broadly, the inhibition is how much of the control response was suppressed. The low end stands for a response near the control, the high end for a response far below the control. Broadly, the AUC is the area under the concentration-time curve, a measure of exposure. Low values mean less exposure, high ones more exposure. What is called Cmax is the highest concentration seen after dosing. Broadly, the Tmax is the time at which the peak concentration occurs. By MRT is commonly meant a mean duration of stay, worked out from the concentration-time curve. As for `COc1cc(OC)c2c(=O)[nH]c(-c3ccc(OCCOc4ccccc4C(N)=O)cc3)nc2c1`, the half-inhibitory concentration (IC50) turned out to be 400 nM in [3], 4600 nM in [5], 440 nM in [7] and 379 nM in [8]. For the same compound, the Ratio IC50 in series [4] is 30. Besides, the figures for the inhibition in series [6] and in series [9] were 92% and 88%, respectively. Also, the t1/2 in [10] is 3.1 h. The same compound displayed an AUC in series [11] of 144.7 ng·h/mL. The compound further returned a Cmax in series [12] of 26.65 ng/mL. In series [13], the Tmax is 1.58 h. Moreover, the MRT in [14] stood at 5.35 h.
For `COc1cc(OC)c2c(=O)[nH]c(-c3ccc([C@@H]4CCCNC4)cc3)nc2c1`, the inhibition is 30% in [15] and 65% in series [16].
On to `O=C(O)c1cc(F)cc2[nH]c(-c3ccc(-c4ccc(NC(=O)C5CC5)cc4F)cc3F)nc12`, for which the IC50 in series [17] turned out to be 84 nM; in series [18] it was 48000 nM.
Take `O=C(c1cc(Cc2n[nH]c(=O)c3ccccc23)ccc1F)N1CCN(C(=O)C2CC2)CC1` [OLAPARIB]: the results for the IC50 in the series on MCF7 and with HCC1937 were 232000 nM and 83100 nM, respectively.
In series [17], `NC(=O)c1cccc2[nH]c(-c3ccc(-c4cncc(CN5CCCC5)c4)cc3)nc12` showed an IC50 of 61 nM.
Turning to `O=C1/C(=C/c2ccncc2)CN(C(=O)c2cc(Cc3n[nH]c(=O)c4ccccc34)ccc2F)C/C1=C\c1ccncc1`, the “Ratio IC50” value was 200 in series [19] and 40 in series [20].
`CC(=O)Nc1cccc(-c2ccc(-c3nc4c(C(N)=O)cccc4[nH]3)cc2)c1` registered an IC50 in series [17] of 460 nM.
Turning to `CCOC(=O)Nc1nc2ccc(-c3cc(Cc4n[nH]c(=O)c5ccccc45)ccc3F)cc2[nH]1`, the values for the IC50 in series [21], in series [22] and in [23] were 5 nM, 50 nM and 990 nM, respectively.
In the case of `CC(=O)Nc1ccc(COc2ccc(-c3ccc(-c4nc5c(C(=O)O)cc(C)cc5[nH]4)cc3)cc2)cc1`, the IC50 in series [17] came out at 44000 nM.
